According to patent publication US20130123460A1, “PEPTIDE FOR IMPROVING BIOSTABILITY OF BIOACTIVE SUBSTANCE, AND BIOACTIVE SUBSTANCE HAVING IMPROVED BIOSTABILITY” (priority 2010, published 2013):
pEC50: −log10 of the molar value. “Also recorded” adds a separate entry of the source. Read-outs that look alike come from different tables or passages of the source. Bridges are numbered along the chain shown (N, C = ends). Where no end group is shown, it is not given here.

Tests used:
[1] = Plasma stability of amylin complex (remaining rate in rat plasma); format: in vitro ADME, SD rats; conditions: for remaining at 0.5 h, 0.5 μmol/L / remaining at 2 h, 0.5 μmol/L / remaining at 8 h, 0.5 μmol/L: SD
Procedure: Evaluation was performed in a manner in which after the treatment of the amylin or amylin peptide complex with plasma for a pre-determined time, an amount of change of the amylin peptide (complex) undecomposed was measured by an HPLC/MS.

[2] = Plasma stability of GLP-1 peptide complex (remaining rate in rat plasma, HPLC/MS); format: in vitro ADME, SD rats; conditions: for remaining at 8 h, 0.5 μmol/L / remaining at 48 h, 0.5 μmol/L: SD
Source text: SD rats were anesthetized with diethyl ether, whole blood was collected and a plasma fraction was separated therefrom.

[3] = target: T1, endogenous GLP-1 receptor (Mus musculus, UniProt O35659); experiment: Insulin secretion capacity of GLP-1 peptide complex in MIN 6 cells;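 as to all read-outs here: insulin released into the supernatant of MIN 6 cultures quantified by ELISA, absorbance read at 450 nm with 620 nm reference after substrate addition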; format: cell-based; conditions: for Insulin secretion capacity (% of control): 1000 pM, control = native GLP-1 at 1000 pM; for Insulin secretion capacity (activity) compared with native GLP-1, in words: MIN 6 cells, 30, 100, 300 or 1000 pM (FIG. 2, FIG. 3)
T1 construct: expressing an endogenous GLP-1 receptor; endogenous in cells; host or cells: MIN 6 mouse insulinoma cells (obtained from a person)
T1 sequence (O35659 22-463): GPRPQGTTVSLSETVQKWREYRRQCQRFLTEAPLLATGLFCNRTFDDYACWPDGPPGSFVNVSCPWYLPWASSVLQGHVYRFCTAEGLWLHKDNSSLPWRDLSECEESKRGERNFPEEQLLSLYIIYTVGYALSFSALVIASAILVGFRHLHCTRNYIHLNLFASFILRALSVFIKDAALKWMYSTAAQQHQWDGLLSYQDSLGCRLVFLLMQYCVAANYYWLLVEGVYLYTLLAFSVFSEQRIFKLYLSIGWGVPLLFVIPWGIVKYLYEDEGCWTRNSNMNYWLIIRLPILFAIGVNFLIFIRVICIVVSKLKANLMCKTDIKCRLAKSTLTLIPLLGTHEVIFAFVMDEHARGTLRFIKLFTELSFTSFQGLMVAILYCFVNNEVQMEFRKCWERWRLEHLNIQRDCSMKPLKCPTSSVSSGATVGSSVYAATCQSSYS
Procedure: MIN 6 was seeded on a multi-plate, which was cultivated at 37° C. for 48 hours. After that, the culture was washed twice with a KRH buffer solution including 2 mM glucose solution (including NaCl 119 mM, KCl 4.74 mM, CaCl2 2.54 mM, MgCl2 1.19 mM, KH2PO4 1.19 mM, 10 mM HEPES buffer solution pH7.3, and 0.1% BSA), and then it was incubated at 37° C. for one hour. […] A supernatant thereof was recovered, and an amount of insulin secreted was measured. The measurement of the insulin was performed in an enzyme-linked immunosorbent assay (ELISA), and an absorbance was measured at 450 nm (a sub-wavelength: 620 nm) after the addition of a substrate.
EC50 values thereof were calculated in the same manner as in Part 2, and the influence on the bioactivity caused by the addition of the partial peptide of the GA module were inspected in detail.
The analysis was performed using the following calculation formula.

[4] = rat plasma, 0.5 μmol/L, 37° C., 48 hours, relative to 0 hour = 100%, read-out: Remaining rate in plasma after 48 hours (%)
[5] = rat plasma, 0.5 μmol/L, 37° C., 48 hours, relative to 0 hour = 100%

Compound | remaining at 8 h, 0.5 μmol/L ([2]; rat, plasma) [%] | remaining at 48 h, 0.5 μmol/L ([2]; rat, plasma) [%] | Insulin secretion capacity (% of control) ([3]; MIN 6 cells, 15 mM glucose) [%] | further results
AKTVEGVKALIDEILAAKCNTATCATQRLANFLVHSSNNFGAILSSTNVGSNTY-NH2 (disulfide 19-24) [Example 30, GAm(28-44)-Amylin(1-37)-NH2] | – | – | – | remaining at 0.5 h, 0.5 μmol/L ([1]; rat, plasma): 88%; remaining at 2 h, 0.5 μmol/L ([1]; rat, plasma): 67%; remaining at 8 h, 0.5 μmol/L ([1]; rat, plasma): 9%
HSEGTFTSDVSSYLEGQAAKEFIAWLVKGYKNLINNAKTVEGVKALIDEILAALP-NH2 [Comparative Example 6, [Ser8]-GLP-1(7-35)-GAm(21-46)-NH2, reference compound] | – | 84 | 45 | –
CC[C@H](C)[C@H](NC(=O)[C@H](C)NC(=O)CNC(=O)[C@H](Cc1ccccc1)NC(=O)[C@H](CC(N)=O)NC(=O)[C@H](CC(N)=O)NC(=O)[C@H](CO)NC(=O)[C@H](CO)NC(=O)[C@H](Cc1c[nH]cn1)NC(=O)[C@@H](NC(=O)[C@H](CC(C)C)NC(=O)[C@H](Cc1ccccc1)NC(=O)[C@H](CC(N)=O)NC(=O)[C@H](C)NC(=O)[C@H](CC(C)C)NC(=O)[C@H](CCCNC(=N)N)NC(=O)[C@H](CCC(N)=O)NC(=O)[C@@H](NC(=O)[C@H](C)NC(=O)[C@@H]1CSSC[C@H](NC(=O)[C@@H](N)CCCCN)C(=O)N[C@@H](CC(N)=O)C(=O)N[C@@H]([C@@H](C)O)C(=O)N[C@@H](C)C(=O)N[C@@H]([C@@H](C)O)C(=O)N1)[C@@H](C)O)C(C)C)C(=O)N[C@@H](CC(C)C)C(=O)N[C@@H](CO)C(=O)N[C@@H](CO)C(=O)N[C@H](C(=O)N[C@@H](CC(N)=O)C(=O)N[C@H](C(=O)NCC(=O)N[C@@H](CO)C(=O)N[C@@H](CC(N)=O)C(=O)N[C@H](C(=O)N[C@@H](Cc1ccc(O)cc1)C(N)=O)[C@@H](C)O)C(C)C)[C@@H](C)O [Comparative Example 16, Amylin(1-37)-NH2] | – | – | – | remaining at 0.5 h, 0.5 μmol/L ([1]; amylin, rat plasma, 0.5 μmol/L, 37° C., 0.5 hour, read-out: Remaining rate in plasma after 0.5 hour (%)): 43%; remaining at 2 h, 0.5 μmol/L ([1]; amylin, rat plasma, 0.5 μmol/L, 37° C., 2 hours, read-out: Remaining rate in plasma after 2 hours (%)): 15%; remaining at 8 h, 0.5 μmol/L ([1]; amylin, rat plasma, 0.5 μmol/L, 37° C., 8 hours, read-out: Remaining rate in plasma after 8 hours (%)): 0%; Remaining rate in plasma after 2 hours (%) ([1]; amylin, rat plasma, 0.5 μmol/L, 37° C., 2 hours): 15%
HSEGTFTSDVSSYLEGQAAKEFIAWLVKGNAKTVEGVKALIDEILAALP-NH2 [Example 15, [Ser8]-GLP-1(7-35)-GAm(27-46)-NH2] | 111 | 93 | 106 | –
CC[C@H](C)[C@H](NC(=O)[C@H](Cc1ccccc1)NC(=O)[C@H](CCC(=O)O)NC(=O)[C@H](CCCCN)NC(=O)[C@H](C)NC(=O)[C@H](C)NC(=O)[C@H](CCC(N)=O)NC(=O)CNC(=O)[C@H](CCC(=O)O)NC(=O)[C@H](CC(C)C)NC(=O)[C@H](Cc1ccc(O)cc1)NC(=O)[C@H](CO)NC(=O)[C@H](CO)NC(=O)[C@@H](NC(=O)[C@H](CC(=O)O)NC(=O)[C@H](CO)NC(=O)[C@@H](NC(=O)[C@H](Cc1ccccc1)NC(=O)[C@@H](NC(=O)CNC(=O)[C@H](CCC(=O)O)NC(=O)[C@H](CO)NC(=O)[C@@H](N)Cc1c[nH]cn1)[C@@H](C)O)[C@@H](C)O)C(C)C)C(=O)N[C@@H](C)C(=O)N[C@@H](Cc1c[nH]c2ccccc12)C(=O)N[C@@H](CC(C)C)C(=O)N[C@H](C(=O)N[C@@H](CCCCN)C(=O)NCC(=O)N[C@@H](CC(C)C)C(=O)N[C@H](C(=O)N[C@@H](CC(=O)O)C(=O)N[C@@H](CCC(=O)O)C(=O)N[C@H](C(=O)N[C@@H](CC(C)C)C(=O)N[C@@H](C)C(=O)N[C@@H](C)C(=O)O)[C@@H](C)CC)[C@@H](C)CC)C(C)C [Example 20, [Ser8]-GLP-1(7-35)-GAm(37-44)] | – | – | 98 | remaining at 48 h, 0.5 μmol/L [2, 4]: 79%; Remaining rate in plasma after 8 hours (%) ([2]; rat plasma, 0.5 μmol/L, 37° C., 8 hours, relative to 0 hour = 100%): 125%
HSEGTFTSDVSSYLEGQAAKEFIAWLVKGVSDYYKNLINNAKTVEGVKALIDEILAALP-NH2 [Comparative Example 5, [Ser8]-GLP-1(7-35)-GAm(17-46)-NH2, reference compound] | – | – | – | remaining at 8 h, 0.5 μmol/L ([2]; rat plasma, 0.5 μmol/L, 37° C., 8 hours, relative to 0 hour = 100%, read-out: Remaining rate in plasma after 8 hours (%)): 105%; remaining at 48 h, 0.5 μmol/L [2, 4]: 105%; Remaining rate in plasma after 48 hours (%) [2, 5]: 105%; pEC50 [3]: < 9.00; Insulin secretion capacity (activity) compared with native GLP-1, in words [3]: hardly detected; also recorded: remarkably decreased
HSEGTFTSDVSSYLEGQAAKEFIAWLVKGVEGVKALIDEILAA-NH2 [Example 11, [Ser8]-GLP-1(7-35)-GAm(31-44)-NH2] | 99 | 92 | 83 | –
HSEGTFTSDVSSYLEGQAAKEFIAWLVKGGVKALIDEILAA-NH2 [Example 9, [Ser8]-GLP-1(7-35)-GAm(33-44)-NH2] | 104 | 93 | 118 | –
HAEGTFTSDVSSYLEGQAAKEFIAWLVKGGVKALIDEILA-NH2 [Example 7, GLP-1(7-35)-GAm(33-43)-NH2] | 94 | 87 | 105 | –
HSEGTFTSDVSSYLEGQAAKEFIAWLVKGTVEGVKALIDEIL-NH2 [Example 12, [Ser8]-GLP-1(7-35)-GAm(30-42)-NH2] | 105 | 116 | 85 | –

More lines, main results first:

remaining at 8 h, 0.5 μmol/L ([2]; rat, plasma) [%] | remaining at 48 h, 0.5 μmol/L ([2]; rat, plasma) [%] | Insulin secretion capacity (% of control) ([3]; MIN 6 cells, 15 mM glucose) [%] | Compound | further results
102 | 93 | 104 | HSEGTFTSDVSSYLEGQAAKEFIAWLVKGINNAKTVEGVKALIDEILAALP-NH2 [Example 16, [Ser8]-GLP-1(7-35)-GAm(25-46)-NH2] | –
90 | 40 | 123 | HAEGTFTSDVSSYLEGQAAKEFIAWLVKGGPSGVKALIDEILAA-NH2 [Example 24, GLP-1(7-35)-Gly-Pro-Ser-GAm(33-44)-NH2] | –
99 | 88 | 139 | HSEGTFTSDVSSYLEGQAAKEFIAWLVKGAKTVEGVKALIDEILAA [Example 18, [Ser8]-GLP-1(7-35)-GAm(28-44)] | –
– | – | 18 | [Ser8]-GLP-1(7-35)-GAm(1-46)-NH2 [Comparative Example 4, reference compound] | Remaining rate in plasma after 48 hours (%) [2, 5]: 105%; EC50 ([3]; MIN 6 cells, 15 mM glucose, concentration for 50% of maximum activity of native GLP-1 at 1000 pM, read-out: EC50 value (nM), insulin secretion capacity): > 1 nM; Insulin secretion capacity (activity) compared with native GLP-1, in words [3]: remarkably impaired; also recorded: remarkably decreased
86 | 53 | 103 | HAEGTFTSDVSSYLEGQAAKEFIAWLVKGGPKALIDEILAA-NH2 [Example 21, GLP-1(7-35)-Gly-Pro-GAm(35-44)-NH2] | –
98 | 94 | 99 | HAEGTFTSDVSSYLEGQAAKEFIAWLVKGGPVKALIDEILAA-NH2 [Example 22, GLP-1(7-35)-Gly-Pro-GAm(34-44)-NH2] | –
114 | 102 | 89 | HSEGTFTSDVSSYLEGQAAKEFIAWLVKGGVKALIDEILAA [Example 19, [Ser8]-GLP-1(7-35)-GAm(33-44)] | –
